Measurements reported in patent US9708314B2, “Heterocyclic amide compound” (NISSAN CHEMICAL INDUSTRIES, LTD., priority 2013, dated 2017).

What was measured:
Format in all cases: in vivo
[1] = system: directly sowed Oryza sativa; experiment: Test Example 3: effect on crop by application to foliage (Wagner pot, water depth 0.1-0.5 cm); conditions: Nineteenth Table; application to foliage; application herbicide amount 320 g/ha
In short: (§1)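 Foliar spray, 14-day-old plants, emulsion diluted to target g/ha; rated 3 wk post-application, 0–5 scale (0 ≤5%, 5 ≥90% herbicidal ratio). Greenhouse 25–30 °C, alluvial soil.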

[2] = system: Echinochloa crus-galli var. crus-galli; experiment: Test Example 3: herbicidal effect by application to foliage (Wagner pot, water depth 0.1-0.5 cm); conditions: Nineteenth Table; application to foliage; application herbicide amount 320 g/ha
In short: as §1

Leptochloa chinensis = experiment: as above; conditions: Nineteenth Table; application to foliage; application herbicide amount 320 g/ha
In short: as §1

Amaranthus retroflexus = experiment: Test Example 4: herbicidal effect by application to foliage (diluvial soil, plastic box); conditions: application to foliage, 320 g/ha
In short: (§2)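 Seeds sown in sterilized diluvial soil, covered ~1.5 cm, grown 14 days in greenhouse at 25° C. to 30° C. Emulsion formulation diluted in water to set rate (g/ha) and sprayed onto stems and leaves. Effect scored visually 3 weeks later on 0–5 scale (5 = ≥90% herbicidal ratio, 0 = ≤5%).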

[3] = system: Echinochloa crus-galli var. crus-galli; experiment: as above; conditions: application to foliage, 320 g/ha
In short: as §2

Galium spurium = experiment: as above; conditions: application to foliage, 320 g/ha
In short: as §2

Stellaria media = experiment: as above; conditions: application to foliage, 320 g/ha
In short: as §2

Abutilon theophrasti = experiment: as above; conditions: application to foliage, 320 g/ha
In short: as §2

Setaria viridis = experiment: as above; conditions: application to foliage, 320 g/ha
In short: as §2

Digitaria ciliaris = experiment: as above; conditions: application to foliage, 320 g/ha
In short: as §2

Alopecurus myosuroides = experiment: as above; conditions: application to foliage, 320 g/ha
In short: as §2

Veronica persica = experiment: as above; conditions: application to foliage, 320 g/ha
In short: as §2

Chenopodium album = experiment: as above; conditions: application to foliage, 320 g/ha
In short: as §2

Apera spica-venti. = experiment: as above; conditions: application to foliage, 320 g/ha
In short: as §2

Avena fatua = experiment: as above; conditions: application to foliage, 320 g/ha
In short: as §2

Lolium multiflorum Lam. = experiment: as above; conditions: application to foliage, 320 g/ha
In short: as §2

`CC#Cc1nnc2c(C(=O)Nc3nnnn3C)ccc(C(F)(F)F)n12` [2-106] was tested, and the “b (effect on crop grade)” value [1] was 0 (Herbicidal ratio of 5% or less (almost no effect)), the “H (herbicidal effect grade)” value [2] was 1 (Herbicidal ratio of 5% or more and less than 20%) and the “D (herbicidal effect grade)” value (Leptochloa chinensis) was 2 (Herbicidal ratio of 20% or more and less than 40%). The “herbicidal effect, N (Amaranthus retroflexus)” value (Amaranthus retroflexus) was 4 (Herbicidal ratio of 70% or more and less than 90%), the “herbicidal effect, H (Echinochloa crus-galli var. crus-galli)” value [3] was 3 (Herbicidal ratio of 40% or more and less than 70%) and the “herbicidal effect, Q (Galium spurium)” value (Galium spurium) was 3 (Herbicidal ratio of 40% or more and less than 70%). The “herbicidal effect, P (Stellaria media)” value (Stellaria media) was 4 (Herbicidal ratio of 70% or more and less than 90%), the “herbicidal effect, M (Abutilon theophrasti)” value (Abutilon theophrasti) was 5 (Herbicidal ratio of 90% or more (almost completely withered)) and the “herbicidal effect, G (Setaria viridis)” value (Setaria viridis) was 1 (Herbicidal ratio of 5% or more and less than 20%). The “herbicidal effect, F (Digitaria ciliaris)” value (Digitaria ciliaris) was 3 (Herbicidal ratio of 40% or more and less than 70%), the “herbicidal effect, J (Alopecurus myosuroides)” value (Alopecurus myosuroides) was 0 (Herbicidal ratio of 5% or less (almost no effect)) and the “herbicidal effect, R (Veronica persica)” value (Veronica persica) was 3 (Herbicidal ratio of 40% or more and less than 70%). For the same compound, the “herbicidal effect, O (Chenopodium album)” value (Chenopodium album) was 5 (Herbicidal ratio of 90% or more (almost completely withered)), the “herbicidal effect, L (Apera spica-venti.)” value (Apera spica-venti.) was 0 (Herbicidal ratio of 5% or less (almost no effect)) and the “herbicidal effect, I (Avena fatua)” value (Avena fatua) was 1 (Herbicidal ratio of 5% or more and less than 20%). For the same compound, the “herbicidal effect, K (Lolium multiflorum Lam.)” value (Lolium multiflorum Lam.) was 0 (Herbicidal ratio of 5% or less (almost no effect)).

For `CC(=O)OCc1nnc2c(C(=O)Nc3nnnn3C)ccc(C(F)(F)F)n12` [2-107], the “b (effect on crop grade)” value [1] was 4 (Herbicidal ratio of 70% or more and less than 90%), the “H (herbicidal effect grade)” value [2] was 4 (Herbicidal ratio of 70% or more and less than 90%) and the “D (herbicidal effect grade)” value (Leptochloa chinensis) was 5 (Herbicidal ratio of 90% or more (almost completely withered)). The “herbicidal effect, N (Amaranthus retroflexus)” value (Amaranthus retroflexus) was 5 (Herbicidal ratio of 90% or more (almost completely withered)), the “herbicidal effect, H (Echinochloa crus-galli var. crus-galli)” value [3] was 5 (Herbicidal ratio of 90% or more (almost completely withered)) and the “herbicidal effect, Q (Galium spurium)” value (Galium spurium) was 4 (Herbicidal ratio of 70% or more and less than 90%). For the same compound, the “herbicidal effect, P (Stellaria media)” value (Stellaria media) was 5 (Herbicidal ratio of 90% or more (almost completely withered)), the “herbicidal effect, M (Abutilon theophrasti)” value (Abutilon theophrasti) was 5 (Herbicidal ratio of 90% or more (almost completely withered)) and the “herbicidal effect, G (Setaria viridis)” value (Setaria viridis) was 3 (Herbicidal ratio of 40% or more and less than 70%). For the same compound, the “herbicidal effect, F (Digitaria ciliaris)” value (Digitaria ciliaris) was 5 (Herbicidal ratio of 90% or more (almost completely withered)), the “herbicidal effect, J (Alopecurus myosuroides)” value (Alopecurus myosuroides) was 0 (Herbicidal ratio of 5% or less (almost no effect)) and the “herbicidal effect, R (Veronica persica)” value (Veronica persica) was 5 (Herbicidal ratio of 90% or more (almost completely withered)). The “herbicidal effect, O (Chenopodium album)” value (Chenopodium album) was 5 (Herbicidal ratio of 90% or more (almost completely withered)), the “herbicidal effect, L (Apera spica-venti.)” value (Apera spica-venti.) was 0 (Herbicidal ratio of 5% or less (almost no effect)) and the “herbicidal effect, I (Avena fatua)” value (Avena fatua) was 1 (Herbicidal ratio of 5% or more and less than 20%). For the same compound, the “herbicidal effect, K (Lolium multiflorum Lam.)” value (Lolium multiflorum Lam.) was 0 (Herbicidal ratio of 5% or less (almost no effect)).
